Patent US20120288443A1, “LABELLED PYRROLYL-OXADIAZOLYL-DIAZABICYCLONONANE DERIVATIVES AND THEIR USE IN DIAGNOSTIC METHODS” (N[…]/S, priority 2009, published 2012)

Tests used:
[1] = PET scan of brain uptake and distribution after i.v. bolus injection; format: in vivo, Danish Landrace pigs; conditions: pig, 90 minutes HRRT PET scan
Procedure: Five Danish Landrace pigs were PET scanned in a high-resolution research tomography (HRRT) scanner after i.v. bolus injection of Compound 1 at t=0 mins. Points and connecting line indicate regional radioactive concentration normalized to injected dose per kg body weight, i.e. standardized uptake values (SUV).
(§1) Compound 1 was given as an intravenous bolus injection to a total of five Danish Landrace pigs, and the pigs were subsequently scanned for 90 minutes in a high resolution research tomography (HRRT) PET scanner. Hereafter, the pigs were re-scanned after pre-treatment with cold ligand, either Compound 1 (10 mg/kg, iv) or SSR180711 (1 mg/kg or 10 mg/kg, iv).
Pre-treatment with Compound 1 and SSR180711 lead to a decline in the distribution volumes (VT) of Compound 1 as determined with logan plot kinetic modelling.

[2] = target: T1, nicotinic α7 acetylcholine receptor (Sus scrofa, UniProt F1SNR6); assay: Distribution volumes (VT) of Compound 1 in pig brain by PET, baseline vs pre-treatment; format: in vivo; set-up: nicotinic α7 acetylcholine receptor in the pig brain; from tissue; host or cells: brain of living pigs (in vivo PET); conditions: for change of distribution volume (VT) of Compound 1 tracer following pre-treatment: pig brain, Logan plot kinetic modelling, pre-treatment 10 mg/kg Compound 1 or 1 or 10 mg/kg SSR180711 i.v.
Procedure: The distribution volumes are determined in the pig brain at baseline, or following pre-treatment with either Compound 1 or SSR180711.
Five pigs were PET scanned at baseline with Compound 1 in the HRRT scanner. Subsequently, the pigs were administered either 10 mg/kg Compound 1 or SSR180711 (1 mg/kg or 10 mg/kg, i.v.), and 30 minutes or 4 hours later, the pigs were scanned a second time using the same PET protocol.
VT is a measure of concentrations of Compound 1 in a given region relative to the plasma concentration. VT was calculated by kinetic modelling using Logan plot linearization. All kinetic modelling was done in PMOD version 3.0 (PMOD technologies, Inc.).

[3] = target: T1, nicotinic α7 acetylcholine receptor; assay: Receptor occupancy by PET (occupancy plotting of logan plot VT) after pre-treatment with cold ligand; format: in vivo, Danish Landrace pigs; set-up: nicotinic α7 acetylcholine receptor in the pig brain; from tissue; host or cells: brain of living Danish Landrace pigs (in vivo PET); conditions: for occupancy of nicotinic α7 acetylcholine receptors: pre-treatment 10 mg/kg iv Compound 1 (cold ligand)
Procedure: as §1

T1 sequence (F1SNR6 20-499): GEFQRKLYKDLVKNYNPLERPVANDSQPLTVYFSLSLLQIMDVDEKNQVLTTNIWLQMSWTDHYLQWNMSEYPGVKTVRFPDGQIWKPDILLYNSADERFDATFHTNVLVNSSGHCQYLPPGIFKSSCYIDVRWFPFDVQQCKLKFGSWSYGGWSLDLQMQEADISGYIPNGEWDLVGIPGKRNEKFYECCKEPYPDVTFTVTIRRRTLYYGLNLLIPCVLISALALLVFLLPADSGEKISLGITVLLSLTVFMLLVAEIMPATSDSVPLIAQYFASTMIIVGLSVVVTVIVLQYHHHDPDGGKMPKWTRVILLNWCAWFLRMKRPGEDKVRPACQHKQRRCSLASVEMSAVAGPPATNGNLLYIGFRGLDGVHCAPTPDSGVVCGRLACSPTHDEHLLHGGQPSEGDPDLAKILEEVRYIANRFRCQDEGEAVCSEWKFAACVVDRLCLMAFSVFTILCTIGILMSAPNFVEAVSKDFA

Row | Molecule | brain entry and regional distribution [1] | binding to nicotinic α7 acetylcholine receptor in the pig brain ([2]; concluded from VT decrease after pre-treatment) | change of distribution volume (VT) of Compound 1 tracer following pre-treatment [2] | occupancy of nicotinic α7 acetylcholine receptors ([3]; inter-scan interval 4 hours) [%] | occupancy of nicotinic α7 acetylcholine receptors ([3]; second scan 30 minutes after pre-treatment) [%] | receptor occupancy at 1 mg/kg ([3]; pig, iv, pre-treatment 1 mg/kg iv SSR180711, tracer Compound 1, read-out: occupancy of nicotinic α7 acetylcholine receptor in the pig brain) [%] | receptor occupancy at 10 mg/kg ([3]; pig, iv, pre-treatment 10 mg/kg iv SSR180711, tracer Compound 1, two values 'respectively', read-out: occupancy of nicotinic α7 acetylcholine receptor in the pig brain) [%] | occupancy of nicotinic α7 acetylcholine receptor in the pig brain ([3]; pre-treatment 10 mg/kg iv SSR180711, tracer Compound 1, two values 'respectively') [%]
1 | 2-(1,4-Diazabicyclo[3.2.2]nonan-4-yl)-5-(1-[^11C]methylpyrrol-2-yl)-1,3,4-oxadiazole [Compound 1] | entered into the pig brain, and the distribution was mainly found in the cerebral cortex and the thalamus | binds specifically and selectively | decreased | 43 | 81 | – | – | –
2 | O=C(Oc1ccc(Br)cc1)N1CCN2CCC1CC2 [SSR180711, 1,4-Diazabicyclo[3.2.2]nonane-4-carboxylic acid, 4-bromophenyl ester] | – | – | decreased | – | – | 52 | 70 | 59
